Source: patent US11136317B2, “NADPH oxidase 4 inhibitors” (ACTELION PHARMACEUTICALS LTD, priority 2015, dated 2021)

molecular target: T1, human NOX4 (Homo sapiens, UniProt Q9NPH5); test: Amplex Red activity assay (cellular H2O2 formation in hNOX4 T-REx-293 cells); type: cell-based; details: tet-induced 24 h, extracellular H2O2 by Amplex Red, 60 min 25° C., geometric mean if determined several times
T1 construct: The full-length human NOX4 (NM_016931.3) transcript was cloned; expressed in transfected cells
T1 sequence (Q9NPH5 1-578): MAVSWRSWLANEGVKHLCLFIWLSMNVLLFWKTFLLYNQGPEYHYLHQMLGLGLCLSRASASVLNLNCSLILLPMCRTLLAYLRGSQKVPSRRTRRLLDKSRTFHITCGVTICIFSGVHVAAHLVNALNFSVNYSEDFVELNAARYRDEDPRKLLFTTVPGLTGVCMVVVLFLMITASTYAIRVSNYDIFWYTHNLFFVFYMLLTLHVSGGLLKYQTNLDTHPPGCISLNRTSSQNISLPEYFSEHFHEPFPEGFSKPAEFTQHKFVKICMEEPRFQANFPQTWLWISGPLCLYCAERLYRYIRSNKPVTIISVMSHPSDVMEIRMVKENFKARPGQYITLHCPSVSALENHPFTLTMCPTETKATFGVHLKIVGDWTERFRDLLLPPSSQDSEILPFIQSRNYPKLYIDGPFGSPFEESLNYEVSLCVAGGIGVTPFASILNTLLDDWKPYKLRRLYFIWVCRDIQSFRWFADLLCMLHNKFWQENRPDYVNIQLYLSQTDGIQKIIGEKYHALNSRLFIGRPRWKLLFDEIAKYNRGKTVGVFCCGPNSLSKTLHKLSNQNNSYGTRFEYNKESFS
T1 sequence (P13498 1-195 partner): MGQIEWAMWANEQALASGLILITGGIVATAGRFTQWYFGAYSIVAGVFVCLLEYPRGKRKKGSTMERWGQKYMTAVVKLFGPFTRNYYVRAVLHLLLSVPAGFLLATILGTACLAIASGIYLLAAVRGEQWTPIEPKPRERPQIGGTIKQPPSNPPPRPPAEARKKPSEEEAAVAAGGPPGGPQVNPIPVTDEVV
Procedure: The nucleotide sequence and the amino acid sequence for the human NOX4 (Entrez Gene ID 50507) is known in the art and are published. The potency and efficacy of the compounds of Formula (I) are assessed for their potential to inhibit the formation of ROS in a cellular assay.
The full-length human NOX4 (NM_016931.3) transcript was cloned into the pDONR™221 vector (Life Technologies™) in order to generate, by site-specific integration according to the recommendation of the manufacturer (Life Technologies™), a recombinant pJTI™ R4 DEST CMV-TO vector containing the NOX4 coding information controlled by tetracycline (tet) responsive tet-on cytomegalovirus promoter (hNOX4 pDEST).
Modified human embryonic kidney cells overexpressing a tet receptor (Jump-In™ T-REx™ HEK293; Life Technologies™) were transfected with the NOX4-containing tet-on vector (hNOX4 pDEST) to generate a stable recombinant cell pool (hNOX4 T-REx-293). hNOX4 T-REx-293 cells were cultured in DMEM containing 4.5 g/L glucose supplemented with 10% fetal calf serum, penicillin (100 U/mL), streptomycin (100 μg/mL), geneticin (1 mg/mL), and blasticidin (5 μg/mL) at 37° C. in air with 5% CO2. Human Nox4 expression was induced with tet (1 μg/mL) for 24 h and extracellular H2O2 was quantified using the Amplex Red reagent (Life Technologies™).
Compounds were prepared as 10 mM stock solution in DMSO vehicle, then diluted in 384-well plates using DMSO followed by a transfer of the dilutions into the assay plate. As a control, diphenylene iodonium was included at a final concentration of 10 μM. Compounds were tested at 10 concentrations in the range from 50 μM highest to 100 nM lowest.
Cellular H2O2 formation was measured using the Amplex Red reagent. […] Cells were seeded into 384-well clear bottom plates at a density of 20 000 cells per well in presence or absence of compounds. […] All wells contained 1.25% of DMSO. The plates were kept at 25° C. for 60 min. The amount of produced resorufin was detected with the Synergy™ Mx microplate reader (BioTek) with excitation and emission wavelengths set to 550 nm and 600 nm, respectively. Fluorescence was measured for each well and the fluorescence at 600 nm wavelength was compared to the fluorescence of the vehicle in place of compound. Inhibitory activities of example compounds were determined by calculating the IC50 value (the concentration of compound needed to inhibit 50% of the enzyme activity). The calculated IC50 values may fluctuate depending on the daily cellular assay performance. Fluctuations of this kind are known to those skilled in the art.

| IC50 [nM] | SMILES |
| --- | --- |
| 541 | O=C(Nc1ccc2oc(N3CCC4(CCCO4)CC3)nc2c1)c1ccc2c(c1)CCO2 [Example 29, 2,3-Dihydro-benzofuran-5-carboxylic acid [2-(1-oxa-8-aza-spiro[4.5]dec-8-yl)-benzooxazol-5-yl]-amide] |
| 2170 | O=C(Nc1ccc2oc(N3CC4(CCCO4)C3)nc2c1)c1ccc2c(c1)CCO2 [Example 31, 2,3-Dihydro-benzofuran-5-carboxylic acid [2-(5-oxa-2-aza-spiro[3.4]oct-2-yl)-benzooxazol-5-yl]-amide] |
| 2140 | CN1CCCC2(C1)CN(c1nc3cc(NC(=O)c4ccc5c(c4)CCO5)ccc3o1)C2 [Example 33, 2,3-Dihydro-benzofuran-5-carboxylic acid [2-(6-methyl-2,6-diaza-spiro[3.5]non-2-yl)-benzooxazol-5-yl]-amide] |
| 1220 | O=C(Nc1ccc2oc(N3CC4(CCCCO4)C3)nc2c1)c1ccc2c(c1)CCO2 [Example 34, 2,3-Dihydro-benzofuran-5-carboxylic acid [2-(5-oxa-2-aza-spiro[3.5]non-2-yl)-benzooxazol-5-yl]-amide] |
| 2520 | CN1CCOc2ccc(C(=O)Nc3ccc4oc(N5CCS(=O)(=O)CC5)nc4c3)cc21 [Example 41, 4-Methyl-3,4-dihydro-2H-benzo[1,4]oxazine-6-carboxylic acid [2-(1,1-dioxo-thiomorpholin-4-yl)-benzooxazol-5-yl]-amide] |
| 566 | O=C(Nc1ccc2oc(N3CCC[C@@H](O)C3)nc2c1)c1ccc2c(c1)CCO2 [Example 42, (R)—N-(2-(3-hydroxypiperidin-1-yl)benzo[d]oxazol-5-yl)-2,3-dihydrobenzofuran-5-carboxamide] |
| 541 | O=C(Nc1ccc2oc(N3CCC[C@H](O)C3)nc2c1)c1ccc2c(c1)CCO2 [Example 43, 2,3-Dihydro-benzofuran-5-carboxylic acid [2-((S)-3-hydroxy-piperidin-1-yl)-benzooxazol-5-yl]-amide] |
| 1140 | CC(C)OC1CN(c2nc3cc(NC(=O)c4ccc5c(c4)CCO5)ccc3o2)C1 [Example 44, 2,3-Dihydro-benzofuran-5-carboxylic acid [2-(3-isopropoxy-azetidin-1-yl)-benzooxazol-5-yl]-amide] |
| 573 | O=C(Nc1ccc2oc(N3CC[C@@H](O)C3)nc2c1)c1ccc2c(c1)CCO2 [Example 45, 2,3-Dihydro-benzofuran-5-carboxylic acid [2-((R)-3-hydroxy-pyrrolidin-1-yl)-benzooxazol-5-yl]-amide] |
| 657 | O=C(Nc1ccc2oc(N3CC(O)C3)nc2c1)c1ccc2c(c1)CCO2 [Example 47, 2,3-Dihydro-benzofuran-5-carboxylic acid [2-(3-hydroxy-azetidin-1-yl)-benzooxazol-5-yl]-amide] |
| 451 | O=C(Nc1ccc2oc(N3CCC4(CC3)COC4)nc2c1)c1ccc2c(c1)CCO2 [Example 50, 2,3-Dihydro-benzofuran-5-carboxylic acid [2-(2-oxa-7-aza-spiro[3.5]non-7-yl)-benzooxazol-5-yl]-amide] |
| 4570 | CCOCC1CCCN1c1nc2cc(NC(=O)c3ccc4c(c3)CCO4)ccc2o1 (centres unmarked) [Example 51, 2,3-Dihydro-benzofuran-5-carboxylic acid [2-(2-ethoxymethyl-pyrrolidin-1-yl)-benzooxazol-5-yl]-amide] |

The remaining lines, values behind:

| SMILES | IC50 [nM] |
| --- | --- |
| O=C(Nc1ccc2oc(N3CCCCC34COC4)nc2c1)c1ccc2c(c1)CCO2 [Example 26, 2,3-Dihydro-benzofuran-5-carboxylic acid [2-(2-oxa-5-aza-spiro[3.5]non-5-yl)-benzooxazol-5-yl]-amide] | 1490 |
| O=C(Nc1ccc2oc(N3CCC4(CCO4)CC3)nc2c1)c1ccc2c(c1)CCO2 [Example 27, 2,3-Dihydro-benzofuran-5-carboxylic acid [2-(1-oxa-7-aza-spiro[3.5]non-7-yl)-benzooxazol-5-yl]-amide] | 729 |
| O=C(Nc1ccc2oc(N3CC4(CCOCC4)C3)nc2c1)c1ccc2c(c1)CCO2 [Example 30, 2,3-Dihydro-benzofuran-5-carboxylic acid [2-(7-oxa-2-aza-spiro[3.5]non-2-yl)-benzooxazol-5-yl]-amide] | 1230 |
| O=C(Nc1ccc2oc(N3CC(N4CCC(O)CC4)C3)nc2c1)c1ccc2c(c1)CCO2 [Example 32, 2,3-Dihydro-benzofuran-5-carboxylic acid {2-[3-(4-hydroxy-piperidin-1-yl)-azetidin-1-yl]-benzooxazol-5-yl}-amide] | 2410 |
| O=C(Nc1ccc2oc(N3CCC34CCC4)nc2c1)c1ccc2c(c1)CCO2 [Example 35, 2,3-Dihydro-benzofuran-5-carboxylic acid [2-(1-aza-spiro[3.3]hept-1-yl)-benzooxazol-5-yl]-amide] | 379 |
| O=C(Nc1ccc2oc(N3CCC34CCOCC4)nc2c1)c1ccc2c(c1)CCO2 [Example 36, 2,3-Dihydro-benzofuran-5-carboxylic acid [2-(7-oxa-1-aza-spiro[3.5]non-1-yl)-benzooxazol-5-yl]-amide] | 404 |
| CC(C)(C)OC(=O)C1CN(c2nc3cc(NC(=O)c4ccc5c(c4)CCO5)ccc3o2)C1 [Example 37, 1-{5-[(2,3-Dihydro-benzofuran-5-carbonyl)-amino]-benzooxazol-2-yl}-azetidine-3-carboxylic acid tert-butyl ester] | 841 |
| O=C(Nc1ccc2oc(N3CCCC3=O)nc2c1)c1ccc2c(c1)CCO2 [Example 38, 2,3-Dihydro-benzofuran-5-carboxylic acid [2-(2-oxo-pyrrolidin-1-yl)-benzooxazol-5-yl]-amide] | 1750 |
| O=C(Nc1ccc2oc(N3CCS(=O)(=O)CC3)nc2c1)c1ccc2c(c1)OCCO2 [Example 39, 2,3-Dihydro-benzo[1,4]dioxine-6-carboxylic acid [2-(1,1-dioxo-thiomorpholin-4-yl)-benzooxazol-5-yl]-amide] | 444 |
| O=C(Nc1ccc2oc(N3CCS(=O)(=O)CC3)nc2c1)c1ccc2c(c1)CCCO2 [Example 40, Chroman-6-carboxylic acid [2-(1,1-dioxo-thiomorpholin-4-yl)-benzooxazol-5-yl]-amide] | 812 |
| O=C(Nc1ccc2oc(N3CC[C@H](O)C3)nc2c1)c1ccc2c(c1)CCO2 [Example 46, 2,3-Dihydro-benzofuran-5-carboxylic acid [2-((S)-3-hydroxy-pyirolidin-1-yl)-benzooxazol-5-yl]-amide] | 570 |
| O=C(Nc1ccc2oc(N3CCC(O)CC3)nc2c1)c1ccc2c(c1)CCO2 [Example 48, 2,3-Dihydro-benzofuran-5-carboxylic acid [2-(4-hydroxy-piperidin-1-yl)-benzooxazol-5-yl]-amide] | 448 |
| O=C(Nc1ccc2oc(N3CC(c4ccccc4)C3)nc2c1)c1ccc2c(c1)CCO2 [Example 49, 2,3-Dihydro-benzofuran-5-carboxylic acid [2-(3-phenyl-azetidin-1-yl)-benzooxazol-5-yl]-amide] | 1230 |
| CN(CC1(F)COC1)c1nc2cc(NC(=O)c3ccc4c(c3)CCO4)ccc2o1 [Example 52, 2,3-Dihydro-benzofuran-5-carboxylic acid {2-[(3-fluoro-oxetan-3-ylmethyl)-methyl-amino]-benzooxazol-5-yl}-amide] | 899 |
